Measurements: patent US9376391B2, “Difluoromethyl-nicotinic-tetrahydronaphthyl carboxamides as fungicides” (BAYER CROPSCIENCE AKTIENGESELLSCHAFT, priority 2012, dated 2016)

Legend:
Sphaerotheca fuliginea = experiment: In vivo preventive test on Sphaerotheca fuliginea (powdery mildew on cucurbits); conditions: preventive spray, gherkin plants, grading 12 days after contamination
Experimental: In Vivo Preventive Test on Sphaerotheca fuliginea (Powdery Mildew on Cucurbits)
(§1) The active ingredients tested are prepared by homogenization in a mixture of acetone/tween/DMSO and then diluted with water to obtain the desired active material concentration.
(§2) Gherkin plants (“Vert petit de Paris” variety), sown in starter cups on a 50/50 peat soil-pozzolana substrate and grown at 24° C., are treated at the Z11 cotyledon stage by spraying with the active ingredient prepared as described above. Plants, used as controls, are treated with the mixture of acetone/tween/DMSO/water not containing the active material.
After 24 hours, the plants are contaminated by spraying the cotyledons with an aqueous suspension of Sphaerotheca fuliginea spores (100 000 spores per ml). The spores are collected from infected plants. The contaminated gherkin plants are incubated at about 20° C. and at 70-80% relative humidity.
Grading (% of efficacy) is carried out 12 days after the contamination, in comparison with the control plants.

Puccinia recondita = experiment: In vivo preventive test on Puccinia recondita (brown rust on wheat); conditions: wheat, spray, graded 12 days after contamination vs control plants
Experimental: In Vivo Preventive Test on Puccinia recondita (Brown Rust on Wheat) […] Wheat plants (“Scipion” variety), sown in starter cups on a 50/50 peat soil-pozzolana substrate and grown at 22° C., are treated at the 1-leaf stage (10 cm height) by spraying with the active ingredient prepared as described above. Plants, used as controls, are treated with the mixture of acetone/tween/DMSO/water not containing the active material. After 24 hours, the plants are contaminated by spraying the leaves with an aqueous suspension of Puccinia recondita spores (100 000 spores per ml). The spores are collected from an infected plant and are suspended in water containing 2.5 ml/1 of Tween 80 at 10%. The contaminated wheat plants are incubated for 24 hours at 20° C. and at 100% relative humidity, and then for 10 days at 20° C. and at 70-80% relative humidity. Grading (% of efficacy) is carried out 12 days after the contamination, in comparison with the control plants.

Septoria tritici = experiment: In vivo preventive test on Septoria tritici (leaf spot on wheat); conditions: preventive spray, wheat plants, grading 24 days after contamination
Experimental: In Vivo Preventive Test on Septoria tritici (Leaf Spot on Wheat)
(§3) The active ingredients tested are prepared by homogenization in a mixture of acetone/tween/DMSO, and then diluted with water to obtain the desired active material concentration.
Wheat plants (“Scipion” variety), sown in starter cups on a 50/50 peat soil-pozzolana substrate and grown at 22° C., are treated at the 1-leaf stage (10 cm height) by spraying with the active ingredient prepared as described above. Plants, used as controls, are treated with the mixture of acetone/tween/DMSO/water not containing the active material.
After 24 hours, the plants are contaminated by spraying the leaves with an aqueous suspension of cryopreserved Septoria tritici spores (500 000 spores per ml). The contaminated wheat plants are incubated for 72 hours at 18° C. and at 100% relative humidity, and then for 21 days at 90% relative humidity.
Grading (% of efficacy) is carried out 24 days after the contamination, in comparison with the control plants.

[1] = log P by HPLC on reversed phase columns (EEC directive 79/831 Annex V.A8); format: physicochemical; conditions: Table 1, formula (I), HPLC/LC-MS at pH 2.7, 0.1% formic acid in water / acetonitrile, gradient 10% to 95%
Uromyces appendiculatus = experiment: In vivo preventive test on Uromyces appendiculatus (bean rust); conditions: preventive spray, bean plants, grading 11 days after contamination
Experimental: In Vivo Preventive Test on Uromyces appendiculatus (Bean Rust) […] Bean plants (“Saxa” variety), sown in starter cups on a 50/50 peat soil-pozzolana substrate and grown at 24° C., are treated at the 2-leaf stage (9 cm height) by spraying with the active ingredient prepared as described above. Plants, used as controls, are treated with the mixture of acetone/tween/DMSO/water not containing the active material. After 24 hours, the plants are contaminated by spraying the leaves with an aqueous suspension of Uromyces appendiculatus spores (150 000 spores per ml). The spores are collected from infected plants and are suspended in water containing 2.5 ml/1 of Tween 80 at 10%. The contaminated bean plants are incubated for 24 hours at 20° C. and at 100% relative humidity, and then for 10 days at 20° C. and at 70-80% relative humidity. Grading (% of efficacy) is carried out 11 days after the contamination, in comparison with the control plants.

Botrytis cinerea = experiment: In vivo preventive test on Botrytis cinerea (grey mould), gherkin plants; conditions: gherkin, spray, graded 4 to 5 days after contamination vs control plants
Experimental: In Vivo Preventive Test on Botrytis cinerea (Grey Mould)
as §1, §2
After 24 hours, the plants are contaminated by spraying the cotyledons with an aqueous suspension of cryopreserved Botrytis cinerea spores (50 000 spores per ml). The spores are suspended in a nutrient solution composed of 10 g/L of PDB, 50 g/L of D-Fructose, 2 g/L of NH4NO3 and 1 g/L of KH2PO4. The contaminated gherkin plants are incubated at 17° C. and at 90% relative humidity.
Grading (% of efficacy) is carried out 4 to 5 days after the contamination, in comparison with the control plants.

Alternaria brassicae = experiment: In vivo preventive test on Alternaria brassicae (leaf spot on radish); conditions: spray, graded 6 days after contamination vs control plants
Experimental: In Vivo Preventive Test on Alternaria brassicae (Leaf Spot on Radish)
as §3
Radish plants (“Pernod Clair” variety), sown in starter cups on a 50/50 peat soil-pozzolana substrate and grown at 17° C., are treated at the cotyledon stage by spraying with the active ingredient prepared as described above. Plants, used as controls, are treated with the mixture of acetone/tween/DMSO/water not containing the active material.
After 24 hours, the plants are contaminated by spraying the cotyledons with an aqueous suspension of Alternaria brassicae spores (50 000 spores per ml). The spores are collected from a 15-day-old culture. The contaminated radish plants are incubated at 20° C. and at 100% relative humidity.
Grading (% of efficacy) is carried out 6 days after the contamination, in comparison with the control plants.

Structure (SMILES) | Eff. % (Puccinia recondita; dose 500 ppm) [%] | Eff. % (Septoria tritici; 500 ppm) [%] | logP^[a] [1] | Eff. % (Puccinia recondita; dose 100 ppm) [%] | Eff. % (Uromyces appendiculatus; 500 ppm) [%] | Eff. % (Alternaria brassicae; dose 500 ppm) [%] | other results
CON=C1c2cccc(NC(=O)c3cccnc3C(F)F)c2CC1(C)C (mixture of isomers) [Example 34] | 93 | 100 |  |  |  |  | Eff. % (Sphaerotheca fuliginea; 500 ppm): 100%
CCC1(C)CC(C)c2c(NC(=O)c3cc(C)cnc3C(F)F)cccc21 (mixture of isomers) [Example 82] |  |  | 3.94^[a] | 94 |  |  | Eff. % (Uromyces appendiculatus; 100 ppm): 88%; Eff. % (Botrytis cinerea; dose 100 ppm): 80%
CCC1(CC)OC(C)c2c(NC(=O)c3cccnc3C(F)F)cccc21 (racemic) [Example 25] | 98 | 86 | 2.86^[a] |  | 100 |  | Eff. % (Botrytis cinerea; dose 500 ppm): 96%
CON=C1CC(C)c2c(NC(=O)c3cccnc3C(F)F)cccc21 (racemic) [Example 30] | 86 | 88 | 2.32^[a] |  | 98 |  | 
CC1CC2(CC2)c2cccc(NC(=O)c3cccnc3C(F)F)c21 (racemic) [Example 42] | 100 | 79 | 3.00^[a] |  | 100 | 83 | Eff. % (Sphaerotheca fuliginea; 500 ppm): 89%; Eff. % (Botrytis cinerea; dose 500 ppm): 99%
CCC1(CC)Cc2c(NC(=O)c3cccnc3C(F)F)cccc2C1C (racemic) [Example 60] | 98 | 100 | 4.11^[a] |  | 100 | 100 | Eff. % (Sphaerotheca fuliginea; 500 ppm): 100%
CCC1OC(C)(C)c2cccc(NC(=O)c3cccnc3C(F)F)c21 (racemic) [Example 77] |  |  | 2.39^[a] | 98 |  |  | Eff. % (Sphaerotheca fuliginea; 100 ppm): 98%; Eff. % (Uromyces appendiculatus; 100 ppm): 100%; Eff. % (Septoria tritici; 100 ppm): 93%; Eff. % (Alternaria brassicae; dose 100 ppm): 75%
CCC1(CC)CC(C)c2c(NC(=O)c3cccnc3C(F)F)cccc21 (racemic) [Example 78] |  |  | 4.01^[a] | 100 |  |  | Eff. % (Sphaerotheca fuliginea; 100 ppm): 98%; Eff. % (Uromyces appendiculatus; 100 ppm): 100%; Eff. % (Alternaria brassicae; dose 100 ppm): 80%; Eff. % (Botrytis cinerea; dose 100 ppm): 98%
CCC1(CC)CC(C)c2c(NC(=O)c3cc(C)cnc3C(F)F)cccc21 (racemic) [Example 79] |  |  | 4.31^[a] | 89 |  |  | Eff. % (Botrytis cinerea; dose 100 ppm): 80%
CCC1(CC)CC(C)c2c(NC(=O)c3ccc(Cl)nc3C(F)F)cccc21 (racemic) [Example 80] |  |  | 4.72^[a] | 94 |  |  | Eff. % (Uromyces appendiculatus; 100 ppm): 91%; Eff. % (Botrytis cinerea; dose 100 ppm): 70%
CCCCON=C1CCc2c(NC(=O)c3cccnc3C(F)F)cccc21 [Example 6] |  |  | 3.44^[a] |  |  | 71 | 
CCCON=C1CCc2c(NC(=O)c3cccnc3C(F)F)cccc21 [Example 7] |  |  | 3.00^[a] |  | 71 | 79 | 
CC1CC(C)(C)c2c(C3CC3)ccc(NC(=O)c3cccnc3C(F)F)c21 (stereo not drawn) [Example 10] | 100 |  | 3.79^[a] |  | 99 |  | Eff. % (Botrytis cinerea; dose 500 ppm): 100%
Cc1ccc(NC(=O)c2cccnc2C(F)F)c2c1C(C)(C)CC2C (stereo not drawn) [Example 11] | 98 |  | 3.41^[a] |  |  |  | Eff. % (Botrytis cinerea; dose 500 ppm): 99%
CC1OC(C)(C)c2c(Br)ccc(NC(=O)c3cccnc3C(F)F)c21 (stereo not drawn) [Example 15] | 86 | 83 | 2.89^[a] |  | 81 |  | 
O=C(Nc1cccc2c1CCC21CC1)c1cccnc1C(F)F [Example 20] | 94 |  | 2.78^[a] |  | 100 |  | Eff. % (Botrytis cinerea; dose 500 ppm): 90%
Cc1cnc(C(F)F)c(C(=O)Nc2ccc(F)c3c2C(C)CC3(C)C)c1 (stereo not drawn) [Example 23] | 94 | 71 | 3.64^[a] |  | 93 |  | Eff. % (Sphaerotheca fuliginea; 500 ppm): 94%
CCC1Cc2c(NC(=O)c3cc(C)cnc3C(F)F)cccc2C1(C)C (stereo not drawn) [Example 38, 2-(difluoromethyl)-N-(2-ethyl-1,1-dimethyl-2,3-dihydro-1H-inden-4-yl)-5-methylnicotinamide] | 94 |  |  |  | 100 | 80 | chromatographic logP ([1]; reversed phase HPLC columns): 4.06
CC1OC(C)(C)c2cccc(NC(=O)c3c(C(F)F)ccnc3C(F)F)c21 (stereo not drawn) [Example 40] | 81 | 71 | 2.66^[a] |  | 100 |  | 
CC1(C)Cc2cccc(NC(=O)c3ccc(Cl)nc3C(F)F)c2C1 [Example 47] | 72 | 71 | 3.76^[a] |  |  |  | 
CC1(C)Cc2cccc(NC(=O)c3cccnc3C(F)F)c2C1 [Example 49] | 100 | 86 | 3.06^[a] |  | 100 | 89 | Eff. % (Sphaerotheca fuliginea; 500 ppm): 100%
CC1CC(CC(C)(C)C)c2cccc(NC(=S)c3cccnc3C(F)F)c21 (stereo not drawn) [Example 59] | 98 | 75 | 4.87^[a] |  | 100 | 88 | Eff. % (Sphaerotheca fuliginea; 500 ppm): 98%
CC1c2cccc(NC(=O)c3cccnc3C(F)F)c2CC1(C)C (stereo not drawn) [Example 62] | 100 | 100 | 3.35^[a] |  | 100 | 100 | Eff. % (Sphaerotheca fuliginea; 500 ppm): 98%
CC1c2c(cccc2NC(=O)c2cccnc2C(F)F)CC1(C)C (stereo not drawn) [Example 85] |  |  | 3.29^[a] | 97 |  |  | Eff. % (Sphaerotheca fuliginea; 100 ppm): 100%; Eff. % (Septoria tritici; 100 ppm): 79%; Eff. % (Botrytis cinerea; dose 100 ppm): 98%
CCC1CC(C)c2c(NC(=O)c3cccnc3C(F)F)cccc21 (stereo not drawn) [Example 88] |  |  | 3.37^[a] | 88 |  |  | Eff. % (Botrytis cinerea; dose 100 ppm): 89%
CCC1(CC)c2cccc(NC(=O)c3cccnc3C(F)F)c2CC1C (stereo not drawn) [Example 91] |  |  | 3.99^[a] | 94 |  |  | Eff. % (Sphaerotheca fuliginea; 100 ppm): 98%; Eff. % (Uromyces appendiculatus; 100 ppm): 100%
